In PubChem BioAssay (NCI) one finds GI50 and TGI data, which are given here for 14 compounds.

Among the test systems are HOP-62 NSCLC; IGROV1 ovarian; NCI-H460 lung; OVCAR-5 ovarian; SF-268 CNS; SF-539 CNS; SK-MEL-28 melanoma; SNB-19 CNS; TK-10 renal; UACC-257 melanoma.
What all share (experiment): inhibition of tumour cell growth, NCI panel, 48 h

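Method: 48-hour compound exposure of cells in 96-well plates, five concentrations, linear interpolation of endpoints. GI50: concentration for 50% inhibition of growth. TGI marks complete inhibition of growth.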 Where only a bound is given, the exact number is not on record here.

With `COc1cc2c(c(OC)c1OC)-c1cc(I)c(O)cc1[C@@H](NC(C)=O)CC2`, the GI50 in the assay on HOP-62 NSCLC is 0.179 µM; in the assay with IGROV1 ovarian, 0.137 µM; with NCI-H460 lung, 0.0356 µM; in the assay on OVCAR-5 ovarian, 0.237 µM; in the assay with SF-268 CNS, 0.0666 µM; in the assay on SF-539 CNS, 0.0314 µM. Further, the GI50 in the assay with SK-MEL-28 melanoma is 0.999 µM; with SNB-19 CNS, 0.0679 µM; in the assay on TK-10 renal, above 44.6 µM; with UACC-257 melanoma, 49.1 µM. Further, the TGI in the assay on HOP-62 NSCLC was above 100 µM; in the assay with IGROV1 ovarian it was above 31.6 µM; with NCI-H460 lung, 4.99 µM; in the assay with OVCAR-5 ovarian it was above 100 µM; in the assay on SF-268 CNS it was 41.1 µM; in the assay with SF-539 CNS, 0.178 µM. The TGI in the assay with SK-MEL-28 melanoma, in the assay with SNB-19 CNS, in the assay with TK-10 renal and in the assay with UACC-257 melanoma was above 100 µM in each case.

As to `COc1cc2ncn(-c3cc(OCc4ccccc4C(F)(F)F)c(C(N)=O)s3)c2cc1OC`, the GI50 was 0.197 µM in the assay with HOP-62 NSCLC; 0.933 µM in the assay with IGROV1 ovarian; 0.101 µM in the assay on NCI-H460 lung; 0.178 µM in the assay on OVCAR-5 ovarian; 0.225 µM in the assay with SF-268 CNS; 0.139 µM in the assay with SF-539 CNS. Also, the GI50 in the assay on SK-MEL-28 melanoma was 1.5 µM; in the assay with SNB-19 CNS it was 2.4 µM; in the assay with TK-10 renal it was 3.29 µM; with UACC-257 melanoma, above 5.96 µM. Also, the TGI in the assay with HOP-62 NSCLC is 5.88 µM; with IGROV1 ovarian it was above 25 µM; in the assay on NCI-H460 lung, above 25 µM; in the assay with OVCAR-5 ovarian it was above 25 µM; in the assay on SF-268 CNS it was above 25 µM; in the assay with SF-539 CNS, above 11.6 µM. The TGI was above 25 µM in the assay with SK-MEL-28 melanoma, above 19.3 µM in the assay on SNB-19 CNS, 12.8 µM in the assay with TK-10 renal and above 25 µM with UACC-257 melanoma.

On to `C=C1C(=O)OC2CC(C)C(/C=C/C(C)=O)=CCC12` (stereo not given), for which the TGI in the assay on HOP-62 NSCLC, with IGROV1 ovarian, with NCI-H460 lung, with OVCAR-5 ovarian, in the assay on SF-268 CNS and with SF-539 CNS was above 100 µM throughout. The TGI with SK-MEL-28 melanoma, in the assay with SNB-19 CNS, with TK-10 renal and in the assay with UACC-257 melanoma was above 100 µM each time.

Consider `CCn1cc(C(=O)O)c(=O)c2cc(F)c(N3CCN(S(=O)(=O)c4ccc(Cl)cc4Cl)CC3)cc21`, for which the GI50 was 3.08 µM with HOP-62 NSCLC; 2.33 µM in the assay with IGROV1 ovarian; 3.13 µM in the assay on NCI-H460 lung; 3.43 µM with OVCAR-5 ovarian; 3.86 µM with SF-268 CNS; 1.92 µM with SF-539 CNS. For the same compound, the GI50 was 3.22 µM in the assay with SK-MEL-28 melanoma, 3.07 µM in the assay with SNB-19 CNS, 4.02 µM in the assay on TK-10 renal and 2.65 µM with UACC-257 melanoma. Further, the TGI was 9.95 µM in the assay on HOP-62 NSCLC; 5.08 µM in the assay on IGROV1 ovarian; 15.9 µM in the assay with NCI-H460 lung; above 100 µM in the assay with OVCAR-5 ovarian; above 100 µM in the assay with SF-268 CNS; 4.07 µM in the assay with SF-539 CNS. The TGI with SK-MEL-28 melanoma turned out to be 13.7 µM; in the assay with SNB-19 CNS it was 20.6 µM; with TK-10 renal it was 23 µM; in the assay with UACC-257 melanoma it was 7.93 µM.

In the case of `O=[N+]([O-])c1cccc(/C=N/Nc2ccc3ccccc3n2)c1O`, the TGI in the assay with HOP-62 NSCLC is 8.9 µM; with IGROV1 ovarian, above 42.7 µM; in the assay with NCI-H460 lung, 7.21 µM; with OVCAR-5 ovarian it was 48.3 µM; in the assay with SF-268 CNS, 15.3 µM; in the assay with SF-539 CNS it was 8.91 µM. In addition, the TGI is above 65.6 µM in the assay with SK-MEL-28 melanoma, 47.4 µM with SNB-19 CNS, above 44.9 µM in the assay with TK-10 renal and 7.67 µM with UACC-257 melanoma.

As for `OCCCN=C1CCCCC1`, the TGI with HOP-62 NSCLC, in the assay on IGROV1 ovarian, in the assay with NCI-H460 lung, in the assay on OVCAR-5 ovarian, with SF-268 CNS and in the assay with SF-539 CNS was above 100 µM in each case. Moreover, the TGI in the assay with SK-MEL-28 melanoma, in the assay with SNB-19 CNS, in the assay with TK-10 renal and in the assay on UACC-257 melanoma was above 100 µM in each case.

Regarding `NC(=NCCCCCCN=C(N)/N=C(\N)Nc1ccc(Cl)cc1)/N=C(\N)Nc1ccc(Cl)cc1`, the GI50 in the assay on HOP-62 NSCLC was 1.33 µM; in the assay with IGROV1 ovarian, 1.28 µM; in the assay on NCI-H460 lung it was 0.929 µM; in the assay with OVCAR-5 ovarian, 1.83 µM; in the assay on SF-268 CNS it was 1.48 µM; with SF-539 CNS it was 1.62 µM. Besides, the GI50 with SK-MEL-28 melanoma is 1.7 µM; in the assay on SNB-19 CNS, 1.46 µM; with TK-10 renal, 2.13 µM; in the assay with UACC-257 melanoma, 2.01 µM. Besides, the TGI came to 4.06 µM in the assay with HOP-62 NSCLC; 3.16 µM with IGROV1 ovarian; 1.92 µM in the assay with NCI-H460 lung; 6.32 µM with OVCAR-5 ovarian; 4.46 µM with SF-268 CNS; 3.98 µM in the assay with SF-539 CNS. The TGI in the assay on SK-MEL-28 melanoma came to 6 µM; with SNB-19 CNS, 5.97 µM; in the assay with TK-10 renal it was 8.9 µM; with UACC-257 melanoma, 7.93 µM.

As for `CC1(C)N=C(N)N=C(N)N1c1ccc(CCCC(=O)Nc2ccc(S(=O)(=O)F)cc2)cc1`, the GI50 was 40.9 µM with HOP-62 NSCLC; 0.57 µM in the assay on IGROV1 ovarian; 0.816 µM in the assay with NCI-H460 lung; 12 µM with OVCAR-5 ovarian; 6.59 µM with SF-268 CNS; 2.62 µM in the assay on SF-539 CNS. Further, the GI50 is 16 µM in the assay on SK-MEL-28 melanoma, 36.5 µM in the assay with SNB-19 CNS, 7.63 µM in the assay on TK-10 renal and 24.8 µM in the assay on UACC-257 melanoma. For the same compound, the TGI in the assay with HOP-62 NSCLC, in the assay on IGROV1 ovarian, in the assay with NCI-H460 lung, with OVCAR-5 ovarian, in the assay with SF-268 CNS and in the assay with SF-539 CNS was above 100 µM throughout. Further, the TGI in the assay with SK-MEL-28 melanoma, in the assay on SNB-19 CNS, in the assay with TK-10 renal and in the assay with UACC-257 melanoma was above 100 µM each time.

Turning to `CC(=O)ON(OCc1ccc2ccccc2c1)C(C)=O`, the GI50 with HOP-62 NSCLC, in the assay on IGROV1 ovarian, in the assay with NCI-H460 lung, in the assay with OVCAR-5 ovarian, in the assay with SF-268 CNS and in the assay on SF-539 CNS was above 100 µM in each case. The GI50 in the assay with SK-MEL-28 melanoma, with SNB-19 CNS, in the assay with TK-10 renal and with UACC-257 melanoma was above 100 µM each time. Moreover, the TGI in the assay with HOP-62 NSCLC, with IGROV1 ovarian, in the assay with NCI-H460 lung, in the assay with OVCAR-5 ovarian, in the assay with SF-268 CNS and with SF-539 CNS was above 100 µM in each case. The TGI with SK-MEL-28 melanoma, in the assay with SNB-19 CNS, in the assay with TK-10 renal and in the assay on UACC-257 melanoma was above 100 µM each time.

For the compound `O=[N+]([O-])c1ccccc1N=Nc1c(O)[nH]c2c(Cl)cccc12`, the TGI in the assay on HOP-62 NSCLC is 40.9 µM; in the assay with IGROV1 ovarian, above 47.8 µM; with NCI-H460 lung, 38.4 µM; in the assay with OVCAR-5 ovarian, above 100 µM; with SF-268 CNS it was 59.8 µM; in the assay with SF-539 CNS, above 100 µM. Also, the TGI in the assay on SK-MEL-28 melanoma is above 72.4 µM; in the assay on SNB-19 CNS, above 79.3 µM; with TK-10 renal, above 54.9 µM; in the assay on UACC-257 melanoma, above 42.5 µM.

On to `COc1ccc2nc3ccccc3c(NCCNCCO)c2c1`, for which the GI50 was 0.604 µM in the assay with HOP-62 NSCLC; 0.54 µM in the assay with IGROV1 ovarian; 0.341 µM in the assay with NCI-H460 lung; 1.18 µM in the assay with OVCAR-5 ovarian; 0.46 µM with SF-268 CNS; 0.801 µM in the assay with SF-539 CNS. Further, the GI50 was 1.19 µM with SK-MEL-28 melanoma, 0.661 µM in the assay with SNB-19 CNS, 0.716 µM in the assay on TK-10 renal and 0.655 µM with UACC-257 melanoma. Further, the TGI in the assay with HOP-62 NSCLC turned out to be 3.99 µM; in the assay on IGROV1 ovarian, 3.06 µM; in the assay with NCI-H460 lung, 1.92 µM; with OVCAR-5 ovarian, 8.85 µM; in the assay on SF-268 CNS it was 2.95 µM; in the assay with SF-539 CNS it was 2.99 µM. Further, the TGI worked out at 3.08 µM with SK-MEL-28 melanoma, 6.9 µM in the assay with SNB-19 CNS, 9.96 µM with TK-10 renal and 2.34 µM with UACC-257 melanoma.

Consider `COC1C(OC(=O)c2ccc(C)[nH]2)C(O)C(Oc2ccc3c(O)c(NC(=O)c4ccc(O)c(CC=C(C)C)c4)c(=O)oc3c2Cl)OC1(C)C` (stereo not given), for which the TGI stood at 33.4 µM in the assay on HOP-62 NSCLC; 39.2 µM in the assay with IGROV1 ovarian; 69.5 µM in the assay with NCI-H460 lung; 33.2 µM in the assay with OVCAR-5 ovarian; 57.4 µM in the assay on SF-268 CNS; 38.1 µM in the assay with SF-539 CNS. Also, the TGI with SK-MEL-28 melanoma is 32.9 µM; with SNB-19 CNS, 30 µM; in the assay on TK-10 renal, above 100 µM; in the assay with UACC-257 melanoma, above 100 µM.

Regarding `O=C1CCC(c2ccccc2)=NN1c1nc2ccccc2s1`, the TGI is above 100 µM in the assay on HOP-62 NSCLC; above 100 µM in the assay with IGROV1 ovarian; above 64.4 µM in the assay on NCI-H460 lung; above 100 µM in the assay with OVCAR-5 ovarian; above 83 µM in the assay on SF-268 CNS; above 63.7 µM in the assay on SF-539 CNS. Further, the TGI with SK-MEL-28 melanoma was above 100 µM; with SNB-19 CNS, above 100 µM; in the assay with TK-10 renal, above 88 µM; in the assay on UACC-257 melanoma it was above 80.2 µM.

For `O=C1/C(=C/c2ccc(Cl)cc2)CCC1CNc1ccc(Cl)cc1` (stereo not given), the TGI in the assay with HOP-62 NSCLC was 56.1 µM; in the assay with IGROV1 ovarian, 27.3 µM; in the assay on NCI-H460 lung it was above 100 µM; in the assay with OVCAR-5 ovarian, above 77.3 µM; in the assay on SF-268 CNS it was 40.6 µM; in the assay with SF-539 CNS it was 23.3 µM. In addition, the TGI was 35.9 µM with SK-MEL-28 melanoma, 35.7 µM in the assay on SNB-19 CNS, 21.8 µM in the assay with TK-10 renal and 32.4 µM in the assay with UACC-257 melanoma.
